Read-outs that look alike come from different tables or passages of the source.
What was measured:
[1] = target: T1, human mu-opioid receptor (hOPRM1) (Homo sapiens, UniProt P35372); assay: cell-based
T1 construct: expressed in transfected cells
Procedure: (§1) The effect of mu-opioid receptor agonists on the inhibition of cAMP production is determined using the […]. Briefly, cAMP Hunter™ cell lines expressing human mu-opioid receptor (hOPRM1) are seeded in 384-well microplates at a density of 10,000 cells/well in a total volume of 20 μl, and are allowed to adhere and recover overnight. […] The cells are incubated with the mu-opioid receptor agonist in the presence of 20 μM forskolin at 37° C. for 30 minutes. The experiment is performed in duplicate.
Assay signal is generated through incubation with 20 μL cAMP XS+ED/CL lysis cocktail for one hour followed by incubation with 20 μL cAMP XS+EA reagent for three hours at room temperature. Microplates are read following signal generation with a PerkinElmer Envision™ instrument for chemiluminescent signal detection.
Percentage activity is calculated using the following formula: % Activity=100%×(1−(mean RLU of test sample−mean RLU of MAX control)/(mean RLU of vehicle control−mean RLU of MAXcontrol).

[2] = target: T1, human mu-opioid receptor (hOPRM1); assay: cell-based; remark: listed apart in the source
Procedure: as §1, with “beta-arrestin recruitment” for “the inhibition of cAMP production”, “PathHunter™” for “cAMP Hunter™”, “5,000” for “10,000”, “agonist” for “agonist in the presence of 20 μM forskolin”, “90” for “30”
Microplates are read following signal generation with a PerkinElmer Envision™ instrument for chemiluminescent signal detection.
Percentage activity is calculated using the following formula: % Activity=100%×(mean RLU (relative luminescence unit) of test sample−mean RLU of vehicle control)/(mean MAX RLU control ligand −mean RLU of vehicle control)).

delta receptors = delta receptors (Homo sapiens, UniProt P41143); conditions: relative to mu-opiate receptor binding
delta receptors, sequence (P41143 whole entry): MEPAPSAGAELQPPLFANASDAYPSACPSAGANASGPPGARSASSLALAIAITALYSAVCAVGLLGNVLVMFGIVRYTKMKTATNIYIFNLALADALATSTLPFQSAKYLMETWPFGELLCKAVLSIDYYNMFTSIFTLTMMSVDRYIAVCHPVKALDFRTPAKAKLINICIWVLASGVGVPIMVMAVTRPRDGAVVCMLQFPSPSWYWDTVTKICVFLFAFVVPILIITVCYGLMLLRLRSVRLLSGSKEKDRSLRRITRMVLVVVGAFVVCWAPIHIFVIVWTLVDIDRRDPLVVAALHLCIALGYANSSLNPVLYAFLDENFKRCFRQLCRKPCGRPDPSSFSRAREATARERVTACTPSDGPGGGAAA

T1 sequence (P35372 whole entry): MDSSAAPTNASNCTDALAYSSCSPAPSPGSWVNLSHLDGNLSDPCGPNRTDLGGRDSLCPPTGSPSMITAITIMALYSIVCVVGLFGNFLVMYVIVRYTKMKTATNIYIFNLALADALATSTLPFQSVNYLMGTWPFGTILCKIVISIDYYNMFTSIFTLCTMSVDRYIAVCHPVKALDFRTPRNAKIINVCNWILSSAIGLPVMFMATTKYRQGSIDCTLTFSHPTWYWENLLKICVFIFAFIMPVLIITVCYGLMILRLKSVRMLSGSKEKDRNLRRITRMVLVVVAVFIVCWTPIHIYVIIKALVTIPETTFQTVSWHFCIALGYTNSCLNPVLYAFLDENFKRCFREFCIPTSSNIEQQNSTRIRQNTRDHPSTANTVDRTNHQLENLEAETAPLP

With met-enkephalin [reference compound] the “Max Percent Activity, inhibition of cAMP production” value [1] was 102.800% and the “Max Percent Activity, beta-arrestin recruitment” value [2] was 100.1%.

With `NC(Cc1ccc(O)cc1)C(=O)NC1CCCCNC(=O)C(Cc2ccccc2)NC(=O)C(Cc2c[nH]c3ccccc23)NC1=O` [CYT-1010, H-Tyr-c-[D-Lys-Trp-Phe]] the EC50 ([1]; cAMP Hunter cells expressing hOPRM1, 20 μM forskolin, 30 minutes at 37° C., duplicate, read-out: EC50 (nM), inhibition of cAMP production) was 0.0053 nM, the “Max Percent Activity, inhibition of cAMP production” value ([1]; normalized to control ligand and vehicle, 20 μM forskolin) was 98.350% and the EC50 ([2]; PathHunter cells expressing hOPRM1, 90 minutes at 37° C., duplicate, read-out: EC50 (nM), beta-arrestin recruitment) was 13.1 nM. For the same compound, the “Max Percent Activity, beta-arrestin recruitment” value ([2]; normalized to control ligand and vehicle, PathHunter cells expressing hOPRM1) was 121.2%.

With H-Tyr-Pro-Trp-Phe-NH2 [SEQ ID NO:1] the “fold weaker binding to delta receptors” value (delta receptors) was “over 4,000 fold”.

Reference: patent US20230212221A1, “Novel Therapeutic Uses of Mu-Opiate Receptor Peptides” (Cytogel Pharma, LLC, priority 2012, published 2023)
